Experiments:
[1] = test system: subunit c of mitochondrial ATP synthase (SCMAS); assay: Detection of storage materials by immunofluorescence of subunit c in motor cortex; assay type: in vivo, mouse; settings: Cln2(−/−) mice, oral gem 7.5 mg/kg/day, 8 weeks
Protocol: (§1) Age- and sex-matched Cln2^(+/+) mice from the same background were used as wild type (WT) controls and Cln2^(−/−) animals were used in different treatment groups. Gem (7.5 mg/kg body wt/day) was dissolved in DMSO followed by dilution in 0.1% methyl cellulose (MeC). Cln2^(−/−) mice were either not fed (Un-untreated group), gavaged with 0.1% MeC (vehicle treated group) or gavaged with gem (gem-treated group) for 8 weeks for biochemical studies. Similar treatment regimen was followed as long as the animals are not considered to be morbid as described above for survival study. Here, 40 mice (20 male and 20 female) were used per group and animals (4 weeks old) were randomly selected for any group.
(§2) After 8 weeks of treatment, mice were sacrificed and their brains fixed, embedded, and processed. […] The samples were mounted and observed under Olympus IX41 fluorescence microscope. […] After acquiring images under 20×objective lens, images were further analyzed as follows. […] Once the area of the image was measured, touch counting program was applied to count number of fluorescent signals using simple mouse click method. […]
It was performed by monitoring subunit c of mitochondrial ATP synthase (SCMAS) by immunofluorescence. […] SCMAS-associated fluorescence intensity was quantified by using the Olympus Microsuite V software. […]

Cln2^(−/−) mice [2] = assay: Locomotor activity (Digiscan Monitor open field) in Cln2(−/−) mice; assay type: in vivo, mouse; settings: oral gem 7.5 mg/kg/day, after 8 weeks of treatment
Protocol: as §1
Locomotor activities were measured in Cln2^(−/−) mice after 8 weeks of gem treatment using Digiscan Monitor (Omnitech Electronics, Inc., Columbus, Ohio) as described by us (Khasnavis & Pahan 2014, Ghosh et al. 2007, Ghosh et al. 2009). This Digiscan Monitor records basic locomotion parameters, such as horizontal activity, total distance traveled, movement time, rest time, etc. as well as stereotypy, behavior that is directly controlled by striatum. […] DIGISCAN software was used to analyze and store horizontal and vertical activity data, which were monitored automatically by infra-red beams. […]

SOCS3 [3] = assay: Western blot of motor cortex and striatum extracts for SOCS3; assay type: in vivo, mouse; settings: Cln2(−/−) mice, 8 weeks of oral gem; both motor cortex and striatum
Protocol: as §1
(§3) After 8 weeks of treatment, mice were sacrificed and cortex and striatum regions were isolated, homogenized in RIPA buffer (150 mM sodium chloride, 1.0% NP-40 or Triton X-100, 0.5% sodium deoxycholate, 0.1% SDS (sodium dodecyl sulphate), 50 mM Tris, pH 8.0), supernatant was taken and protein was estimated by BioRad protein assay. Equal amounts of protein from the tissue extract were separated in 12% or 15% Bis-Tris gels and proteins were transferred onto a nitrocellulose membrane (Bio-Rad) using the Thermo-Pierce Fast Semi-Dry Blotter (Corbett et al. 2015, Roy et al. 2015, Roy et al. 2016). […]

[4] = cited from earlier work
Cln2^(−/−) mice [5] = assay: Survival study of Cln2(−/−) mice treated orally with gem; assay type: in vivo, mouse; settings: gem 7.5 mg/kg body weight/day via gavage from 4 weeks of age
From the text: Animal maintaining and experiments were in accordance with National Institute of Health guidelines and were approved by the Institutional Animal Care and Use committee (IACUC) of the Rush University of Medical Center, Chicago, Ill. […] However, if any mouse came to the moribund stage, it was decapitated after anesthesia with ketamine/xylazine injectables. Conditions for moribund were as follows: central nervous system disturbance (head tilt, seizures, tremors, circling, spasticity, and paresis); inability to remain upright; evidence of muscle atrophy; chronic diarrhea or constipation; rough coat and distended abdomen; preading area of alopecia caused by disease; coughing, rales, wheezing and nasal discharge; distinct jaundice and/or paleness (anemia); markedly discolored urine, polyuria or anuria; frank bleeding from any orifice; persistent self-induced trauma. Cln2^(+/−) animals were kindly provided by Dr. Peter Lobel (Center for Advanced Biotechnology and Medicine, Robert Wood Johnson Medical School, Piscataway, N.J., USA). These animals were inbred and subsequent generations were screened by RTPCR to further obtain Cln2^(+/+), Cln2^(+/−) and Cln2^(−/−) strains. […]
All values are expressed as means±SEM. […]

IL-1Ra [6] = assay: Western blot of motor cortex and striatum extracts for IL-1Ra; assay type: in vivo, mouse; settings: Cln2(−/−) mice, 8 weeks of oral gem; both motor cortex and striatum
Protocol: as §1, §3

SOCS3 [7] = assay: Double-label immunofluorescence of striatal sections for SOCS3 (GFAP, Iba1); assay type: in vivo, mouse; settings: Cln2(−/−) mice, 8 weeks of oral gem, seen in astrocytes, microglia and other brain cells
Protocol: as §1
as §2, with “processed. Sections (30 μm) were made from different brain regions (motor cortex and striatum) using a Leica Cryostat and immunofluorescence staining on fresh frozen sections was performed as described (Corbett et al. 2015, Roy et al. 2015, Roy et al. 2016).” for “processed.”

astroglia or microglia = assay: Astroglia and microglia in brain sections (GFAP, Iba1 immunofluorescence); assay type: in vivo, mouse; settings: Cln2(−/−) mice, after gem treatment; motor cortex and striatum
Protocol: as §1
as §2, with “processed. Sections (30 μm) were made from different brain regions (motor cortex and striatum) using a Leica Cryostat and immunofluorescence staining on fresh frozen sections was performed as described (Corbett et al. 2015, Roy et al. 2015, Roy et al. 2016).” for “processed.”

NeuN-positive neurons = assay: Neuronal apoptosis, NeuN/TUNEL double-labeling of brain sections; assay type: in vivo, mouse; settings: Cln2(−/−) mice, oral gem 7.5 mg/kg/day, 8 weeks
Protocol: Reagents for TUNEL assay on frozen brain sections were purchased from EMD Millipore (Billerica, Mass.) and experiments were performed according to manufacturer's protocol. Blocking buffer and secondary antibodies for immune blot (IB) (IRDye 700 or IRDye 800—labelled) were purchased from Licor (Lincoln, Nebr.). Secondary antibodies for immunohistochemistry (IHC) (FITC or Cy5—labeled) were purchased from Jackson ImmunoResearch (West Grove, Pa.).
Age- and sex-matched Cln2^(+/+) mice from the same background were used as wild type (WT) controls and Cln2^(−/−) animals were used in different treatment groups. Gem (7.5 mg/kg body wt/day) was dissolved in DMSO followed by dilution in 0.1% methyl cellulose (MeC). Cln2^(−/−) mice were either not fed (Un-untreated group), gavaged with 0.1% MeC (vehicle treated group) or gavaged with gem (gem-treated group) for 8 weeks for biochemical studies. […]
as §2

IL-1Ra [8] = assay: Double-label immunofluorescence of striatal sections for IL-1Ra (GFAP, Iba1); assay type: in vivo, mouse; settings: Cln2(−/−) mice, 8 weeks of oral gem, in both astrocytes and microglia
Protocol: as §1
as §2, with “processed. Sections (30 μm) were made from different brain regions (motor cortex and striatum) using a Leica Cryostat and immunofluorescence staining on fresh frozen sections was performed as described (Corbett et al. 2015, Roy et al. 2015, Roy et al. 2016).” for “processed.”

[9] = after oral administration; cited from earlier work
phospho-BAD (P-BAD) = assay: Immunoblot of brain homogenates for phospho-BAD; assay type: in vivo, mouse; settings: Cln2(−/−) mice, oral gem 7.5 mg/kg/day, 8 weeks
Protocol: as §1, §3

For `Cc1ccc(C)c(OCCCC(C)(C)C(=O)O)c1` [gem, 5-(2,5-dimethylphenoxy)-2,2-dimethylpentanoic acid], the “SCMAS storage material in the motor cortex” value [1] was “significant decrease in SCMAS”, the “locomotor activities (horizontal activity, movement time, number of movement, total distance, stereotypy counts, rest time)” value (Cln2^(−/−) mice [2]) was “significantly improved locomotor activities” and the “SOCS3 level, Western blot” value (SOCS3 [3]) was “increase in SOCS3”. The tolerability ([4]; human and animal studies) was “well tolerated”, the toxicity ([4]; oral drug) was “fairly nontoxic” and the “increase of the lifespan” value (Cln2^(−/−) mice [5]) was “more than 2 months”. For the same molecule, the survived until (Cln2^(−/−) mice [5]; untreated all died within 137 days, vehicle within 150 days) was 204 days, the “IL-1Ra level, Western blot” value (IL-1Ra [6]) was “increase” and the “SOCS3 in the striatum, immunofluorescence” value (SOCS3 [7]) was “marked increase in SOCS3”. For the same molecule, the “number of astroglia or microglia” value (astroglia or microglia) was “did not observe any reduction in either astroglia or microglia”, the “neuronal apoptosis (NeuN+TUNEL+ cells) in the motor cortex” value (NeuN-positive neurons; motor cortex) was “strongly inhibited neuronal apoptosis” and the “neuronal apoptosis (NeuN+TUNEL+ cells) in the striatum” value (NeuN-positive neurons; striatum) was “reduced neuronal apoptosis”. For the same molecule, the “IL-1Ra in the striatum, immunofluorescence” value (IL-1Ra [8]) was “restoration and/or upregulation of IL-1Ra”, the “entry into the CNS” value [9] was “enters into the CNS” and the “level of P-BAD in the motor cortex” value (phospho-BAD (P-BAD); motor cortex) was “upregulation of P-BAD”. For the same molecule, the “level of P-BAD in the striatum” value (phospho-BAD (P-BAD); striatum) was “increased the level of P-BAD”.

Reference: patent US11020366B2, “Locomotor activity and increase in longevity of late infantile neuronal ceriod lipofuscinosis subjects by Gemfibrozil” (Rush University Medical Center, priority 2016, dated 2021)
